Results published in US9428504B2, “7-hydroxy-spiropipiperidine indolinyl antagonists of P2Y1 receptor” (BRISTOL-MYERS SQUIBB COMPANY, priority 2012, dated 2016).

How the values were obtained:
[1] = molecular target: cloned human P2Y1 receptors (Homo sapiens (Human), UniProt P47900); test: Binding Assay A: membrane binding assay, [33P] 2MeS-ADP; conditions: values marked *; WGA FlashPlate, [33P] 2MeS-ADP displacement; read-out: P2Y1 Ki (nM) *Using binding assay A
From the text: A membrane binding assay was used to identify inhibitors of [^33P] […] The cDNA clone for human P2Y1 was obtained from Incyte Pharmaceuticals and its sequence confirmed by established techniques (for a compendium of techniques used see Ausubel, F. et al. Current Protocols in Molecular Biology, John Wiley and Sons, NY, N.Y. (1995)). The essential coding sequences were subcloned into pCDNA 3.1 (Invitrogen) to produce a P2Y1 expression construct. This construct was then transfected into the human embryonic kidney cell line HEK-293 and stable transfectants selected in GENETICIN® (G418 sulfate; Life Technologies). […] Membranes were prepared by growing HEK293 #49 in 150 mm dishes in DMEM/10% FBS in the presence of 1 mg/ml G418 until cells were 80-90% confluent. Plates were then washed with cold (4° C.) D-PBS twice and cells harvested by scraping into 10 mL D-PBS. Cells were pelleted by centrifugation (1,000 g, 10 min, 4° C.) and the resulting pellet resuspended in Lysis Buffer (10 mM Tris (7.4), 5 mM MgCl2 containing Complete protease inhibitor cocktail (Roche Cat #1873580) as recommended by the manufacturer). The suspension was then homogenized in a Dounce homogenizer (10-15 strokes; B pestle, on ice) and the homogenate spun at 1,000 g, 4° C., 5 min to pellet large debris. The supernatant was centrifuged at 150,000 g, 4° C., for 1 hour and the resulting membrane pellet resuspended in 0.5-1 mL of Buffer B (15 mM HEPES (7.4), 145 mM NaCl, 0.1 mM MgCl2, 5 mM EDTA, 5 mM KCl) and stored at −70° C. until used.
Binding reactions were performed in WGA FLASHPLATE®s (PerkinElmer Life Sciences, Cat # SMP105A) in a volume of 200 μL containing ˜45 fmol of P2Y1 receptor (5 μg of total protein), 0.5 nM [^33P] […] Reactions were allowed to proceed to completion at room temperature for 1 hour and then the aqueous solution aspirated. Plates were sealed and the residual [^33P] bound to the plate determined by scintillation counting.

[2] = tested on: human platelet rich plasma (PRP); test: ADP induced platelet aggregation assay; conditions: Homo sapiens, Platelet, read-out: PA IC50 (μM) @ 10 μM ADP, platelet aggregation induced by 10 μM ADP, human PRP

Sequence of cloned human P2Y1 receptors (P47900 whole entry): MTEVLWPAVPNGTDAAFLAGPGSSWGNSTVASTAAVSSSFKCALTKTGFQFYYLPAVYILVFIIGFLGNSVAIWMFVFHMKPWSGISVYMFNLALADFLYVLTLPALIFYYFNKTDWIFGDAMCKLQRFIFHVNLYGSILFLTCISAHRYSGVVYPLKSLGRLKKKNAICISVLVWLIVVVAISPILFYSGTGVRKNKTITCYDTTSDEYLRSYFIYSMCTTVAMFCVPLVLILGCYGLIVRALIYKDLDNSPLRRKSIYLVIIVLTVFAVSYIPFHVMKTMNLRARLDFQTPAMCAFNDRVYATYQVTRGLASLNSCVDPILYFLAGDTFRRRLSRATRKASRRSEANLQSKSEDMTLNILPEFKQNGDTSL

SMILES | Ki [1] [nM] | IC50 [2] [µM]
CC(C)(C)CN1CCC2(CC1)CN(c1ccccc1NC(=O)Nc1ccc(OC(F)(F)F)cc1)c1c(O)cccc12 [Example 1, 1-(2-(7-Hydroxy-1′-neopentylspiro[indoline-3,4′-piperidine]-1-yl)phenyl)-3-(4-(trifluoromethoxy)phenyl)urea] | 10.3 | 1.7
CC(C)N1CCC2(CC1)CN(c1ccccc1NC(=O)Nc1ccc(OC(F)(F)F)cc1)c1ccccc12 [Comparator 1, reference compound] | 300 | 29.2
